Results published in patent US9376418B2, “Substituted pyridine spleen tyrosine kinase (SYK) inhibitors” (Merck Sharp & Dohme Corp., priority 2012, dated 2016).

target: T1, recombinant human GST-SYK (Homo sapiens, UniProt P43405); experiment: Homogeneous Time-Resolved Fluorescence (HTRF) assay for the recombinant human Syk enzyme; format: biochemical; conditions: HTRF assay, recombinant human GST-SYK; IC50 given as class symbols; read-out: rhSYK Activity
T1 construct: purchased Carna Biosciences 08-176
How it was run: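 GST-hSYK ([…]) was preincubated with inhibitor (0.1% DMSO final) for 10 minutes at room temperature in 15 mM Tris-HCl pH 7.5, 0.01% tween 20, 2 mM DTT. Biotinylated peptide (250 nM), 5 mM magnesium and 25 μM ATP started a 45-minute room-temperature reaction, read by time-resolved fluorescence.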

| Structure (SMILES) | IC50 [nM] |
| --- | --- |
| CNS(=O)(=O)CCNC(=O)c1ccc(-c2cc(C)cc(Nc3nccc(C(F)(F)F)n3)c2)cn1 [Example 16.57, N-[2-(methylsulfamoyl)ethyl]-5-(3-methyl-5-{[4-(trifluoromethyl)pyrimidin-2-yl]amino}phenyl)pyridine-2-carboxamide] | < 100 |
| CNC(=O)C1CCN(c2ccc(-c3cc(C)cc(Nc4nccc(C(F)(F)F)n4)c3)cn2)CC1 [Example 7.42, N-methyl-1-[5-(3-methyl-5-{[4-(trifluoromethyl)pyrimidin-2-yl]amino}phenyl)pyridin-2-yl]piperidine-4-carboxamide] | 100 to 1000 |
| OC(c1ccccc1)c1ccc(-c2cccc(Nc3nccc(C(F)(F)F)n3)c2)cn1 (centres unmarked) [Example 2.42, phenyl[5-(3-{[4-(trifluoromethyl)pyrimidin-2-yl]amino}phenyl)pyridin-2-yl]methanol] | 100 to 1000 |
| Cc1cc(Nc2nccc(C(F)(F)F)n2)cc(-c2ccnc(N3CCN(C(=O)c4ccc5cc[nH]c5c4)CC3)c2)c1 [Example 15.39, N-(3-{2-[4-(1H-indol-6-ylcarbonyl)piperazin-1-yl]pyridin-4-yl}-5-methylphenyl)-4-(trifluoromethyl)pyrimidin-2-amine] | 100 to 1000 |
| NC(=O)c1ccc(-c2cccc(Nc3nccc(C(F)(F)F)n3)c2)nc1 [Example 2.8, 6-(3-{[4-(trifluoromethyl)pyrimidin-2-yl]amino}phenyl)pyridine-3-carboxamide] | 100 to 1000 |
| Cc1cc(Nc2nccc(C(F)(F)F)n2)cc(-c2ccc(NCCCC(=O)O)nc2)c1 [Example 7.102, 4-{[5-(3-methyl-5-{[4-(trifluoromethyl)pyrimidin-2-yl]amino}phenyl)pyridin-2-yl]amino}butanoic acid] | < 100 |
| Cc1cc(Nc2nccc(C(F)(F)F)n2)cc(-c2ccnc(N3CCNC(=O)C3)c2)c1 [Example 15.44, 4-[4-(3-methyl-5-{[4-(trifluoromethyl)pyrimidin-2-yl]amino}phenyl)pyridin-2-yl]piperazin-2-one] | < 100 |
| Cc1cc(Nc2nccc(C(F)(F)F)n2)cc(-c2ccc(NC(C)(C)c3nnn[nH]3)nc2)c1 [Example 18.8, N-[3-methyl-5-(6-{[1-methyl-1-(1H-tetrazol-5-yl)ethyl]amino}pyridin-3-yl)phenyl]-4-(trifluoromethyl)pyrimidin-2-amine] | < 100 |
| Cc1cc(Nc2nccc(C(F)(F)F)n2)cc(-c2ccc(CCc3nnn[nH]3)nc2)c1 [Example 13.4, N-(3-Methyl-5-{6-[2-(1H-tetrazol-5-yl)ethyl]pyridin-3-yl}phenyl)-4-(trifluoromethyl)pyrimidin-2-amine] | < 100 |
| Cc1cc(Nc2nccc(C(F)(F)F)n2)cc(-c2ccc(CCC(N)=O)nc2)c1 [Example 13.3, 3-[5-(3-Methyl-5-{[4-(trifluoromethyl)pyrimidin-2-yl]amino}phenyl)pyridin-2-yl]propanamide] | < 100 |
| Cc1cc(Nc2nccc(C(F)(F)F)n2)cc(-c2ccc(NC(C)(C)C#N)nc2)c1 [Example 7.114, 2-methyl-2-{[5-(3-methyl-5-{[4-(trifluoromethyl)pyrimidin-2-yl]amino}phenyl)pyridin-2-yl]amino}propanenitrile] | < 100 |
| COc1ccnc(Nc2cc(C)cc(-c3ccc(C(C)(O)[C@H]4CC[C@H](C(=O)O)CC4)nc3)c2)n1 (single isomer, unassigned) [Example 9.28, trans-4-[(1R or 1S)-1-hydroxy-1-(5-{3-[(4-methoxypyrimidin-2-yl)amino]-5-methylphenyl}pyridin-2-yl)ethyl]cyclohexanecarboxylic acid] | < 100 |
| Cc1cc(Nc2nccc(C(F)(F)F)n2)cc(-c2ccc(C(C)(O)C(F)(F)F)nc2)c1 (centres unmarked) [Example 2.76, 1,1,1-trifluoro-2-[5-(3-methyl-5-{[4-(trifluoromethyl)pyrimidin-2-yl]amino}phenyl)pyridin-2-yl]propan-2-ol] | 100 to 1000 |
| Cc1cc(Nc2nccc(C(F)(F)F)n2)cc(-c2ccnc(N3CCN(S(C)(=O)=O)CC3)c2)c1 [Example 15.63, N-(3-methyl-5-{2-[4-(methylsulfonyl)piperazin-1-yl]pyridin-4-yl}phenyl)-4-(trifluoromethyl)pyrimidin-2-amine] | 100 to 1000 |
| Cc1cc(Nc2nccc(C(F)(F)F)n2)cc(-c2ccc(Oc3ccc(C(=O)O)cc3)nc2)c1 [Example 2.112, 4-{[5-(3-methyl-5-{[4-(trifluoromethyl)pyrimidin-2-yl]amino}phenyl)pyridin-2-yl]oxy}benzoic acid] | < 100 |
| Cc1cc(Nc2nccc(C3CC3)n2)cc(-c2ccnc(CCC(=O)O)c2)c1 [Example 2.137, 3-(4-{3-[(4-cyclopropylpyimidin-2-yl)amino]-5-methylphenyl}pyridin-2-yl)propanoic acid] | < 100 |

| Structure (SMILES) | IC50 [nM] |
| --- | --- |
| Cc1cc(Nc2nccc(C(F)(F)F)n2)cc(-c2ccc(N3CCCNCC3)nc2)c1 [Example 2.59, N-{3-[6-(1,4-diazepan-1-yl)pyridin-3-yl]-5-methylphenyl}-4-(trifluoromethyl)pyrimidin-2-amine] | < 100 |
| CC(=O)N1CCCN(c2ccc(-c3cc(C)cc(Nc4nccc(C(F)(F)F)n4)c3)cn2)CC1 [Example 7.59, N-{3-[6-(4-acetyl-1,4-diazepan-1-yl)pyridin-3-yl]-5-methylphenyl}-4-(trifluoromethyl)pyrimidin-2-amine] | < 100 |
| Cc1cc(Nc2nccc(C(F)(F)F)n2)cc(-c2ccc(C(C)(O)CO)nc2)c1 (centres unmarked) [Example 9.57, 2-[5-(3-methyl-5-{[4-(trifluoromethyl)pyrimidin-2-yl]amino}phenyl)pyridin-2-yl]propane-1,2-diol] | < 100 |
| Cc1cc(Nc2nccc(C(F)F)n2)cc(-c2ccc(C(C)(O)C3CCC(C(=O)O)CC3)nc2)c1 (single isomer, unassigned) [Example 9.31, trans-4-{(1R or 1S)-1-[5-(3-{[4-(difluoromethyl)pyrimidin-2-yl]amino}-5-methylphenyl)pyridin-2-yl]-1-hydroxyethyl}cyclohexanecarboxylic acid] | < 100 |
| Cc1cc(Nc2nccc(C)n2)cc(-c2ccc(C(C)(O)[C@H]3CC[C@H](C(=O)O)CC3)nc2)c1 (single isomer, unassigned) [Example 9.27, cis-4-[(1S or 1R)-1-hydroxy-1-(5-{3-methyl-5-[(4-methylpyrimidin-2-yl)amino]phenyl}pyridin-2-yl)ethyl]cyclohexanecarboxylic acid] | < 100 |
| COC(=O)Cn1cc(-c2ccc(-c3cc(C)cc(Nc4nccc(C(F)(F)F)n4)c3)cn2)nn1 [Example 25.1, Methyl {4-[5-(3-methyl-5-{[4-(trifluoromethyl)pyrimidin-2-yl]amino}phenyl)pyridin-2-yl]-1H-1,2,3-triazol-1-yl}acetate] | 100 to 1000 |
| Cc1cc(Nc2nccc(C(F)(F)F)n2)cc(-c2ccc(N3CCCC4(CCCO4)C3)nc2)c1 (centres unmarked) [Example 7.11, N-{3-methyl-5-[6-(1-oxa-7-azaspiro[4.5]dec-7-yl)pyridin-3-yl]phenyl}-4-(trifluoromethyl)pyrimidin-2-amine] | 100 to 1000 |
| Cc1cc(Nc2nccc(C(F)(F)F)n2)cc(-c2ccc(C(=O)NC3CCNC3=O)nc2)c1 (centres unmarked) [Example 16.26, 5-(3-methyl-5-{[4-(trifluoromethyl)pyrimidin-2-yl]amino}phenyl)-N-(2-oxopyrrolidin-3-yl)pyridine-2-carboxamide] | < 100 |
| Cc1cc(Nc2nccc(C(F)(F)F)n2)cc(-c2ccc(N3CCCC(C(=O)O)C3)nc2)c1 (centres unmarked) [Example 7.135, 1-[5-(3-methyl-5-{[4-(trifluoromethyl)pyrimidin-2-yl]amino}phenyl)pyridin-2-yl]piperidine-3-carboxylic acid] | < 100 |
| Cc1cc(Nc2nccc(C(F)(F)F)n2)cc(-c2cncc(C3(O)COC3)c2)c1 [Example 9.79, 3-[5-(3-methyl-5-{[4-(trifluoromethyl)pyrimidin-2-yl]amino}phenyl)pyridin-3-yl]oxetan-3-ol] | < 100 |
| Cc1cc(Nc2nccc(C(F)(F)F)n2)cc(-c2ccc(C(C)(O)[C@H]3CC[C@H](C(=O)O)CC3)nc2)c1 (single isomer, unassigned) [Example 9.30, trans-4-{(1R or 1S)-1-hydroxy-1-[5-(3-methyl-5-{[4-(trifluoromethyl)pyrimidin-2-yl]amino}phenyl)pyridin-2-yl]ethyl}cyclohexanecarboxylic acid] | < 100 |
| Cc1cc(Nc2nccc(C(F)(F)F)n2)cc(-c2ccnc(N3CCN(C)C(=O)C3)c2)c1 [Example 15.47, 1-methyl-4-[4-(3-methyl-5-{[4-(trifluoromethyl)pyrimidin-2-yl]amino}phenyl)pyridin-2-yl]piperazin-2-one] | < 100 |
| COC(=O)c1ccc(-c2cc(C)cc(Nc3nccc(C(F)(F)F)n3)c2)cn1 [Example 2.65, methyl 5-(3-methyl-5-{[4-(trifluoromethyl)pyrimidin-2-yl]amino}phenyl)pyridine-2-carboxylate] | 100 to 1000 |
| Cc1cc(Nc2nccc(C(F)(F)F)n2)cc(-c2ccc(C(=O)N3CCn4ccnc4C3)nc2)c1 [Example 16.32, N-{3-[6-(5,6-dihydroimidazo[1,2-a]pyrazin-7(8H)-ylcarbonyl)pyridin-3-yl]-5-methylphenyl}-4-(trifluoromethyl)pyrimidin-2-amine] | < 100 |
| Cc1cc(Nc2nccc(C(F)(F)F)n2)cc(-c2ccc(C(C)(O)CO)nc2)c1 (centres unmarked) [Example 9.56, 2-[5-(3-methyl-5-{[4-(trifluoromethyl)pyrimidin-2-yl]amino}phenyl)pyridin-2-yl]propane-1,2-diol] | < 100 |
| Cc1cc(Nc2nccc(C(F)(F)F)n2)cc(-c2ccnc(NCC3CCC(=O)N3)c2)c1 (centres unmarked) [Example 15.32, 5-({[4-(3-methyl-5-{[4-(trifluoromethyl)pyrimidin-2-yl]amino}phenyl)pyridin-2-yl]amino}methyl)pyrrolidin-2-one] | < 100 |
